Experiments:
Format in all cases: cell-based
MCF-7 cells = test: SRB assay, breast cancer cell line MCF-7
Protocol: To determine the effect of the combination treatment of omeprazole (KN510), a carnitine acylcarnitine carrier inhibitor, and thioridazine (KN714), a peroxisome beta-oxidation inhibitor, on cancer cell growth, the extent of cancer cell death was determined using the SRB assay (Sulforhodamine B colorimetric assay), and the degree of cancer cell growth was analyzed relative to the control (100%). As a comparison, omeprazole (KN510) and trimetazidine (KN713), a 3-ketoacyl CoA thiolase inhibitor, were co-treated.
First, a pancreatic cancer cell line, MIA PaCa-2, was prepared, and cells (100 μl) were inoculated into 96-well cell culture plates at plating densities ranging from 5,000 to 20,000 cells/well, depending on the doubling time of each cell line. After cell inoculation, 96-well cell culture plates were incubated for 24 hours before the addition of experimental drugs. MIA PaCa2 cells were treated with omeprazole (KN510) at concentrations of 10^−8 M, 10^−7 M, 10^−6 M, 10^−5 M, 10^−4 M, and 10^−3 M, thioridazine (KN714) at concentrations of 10^−10 M, 10^−9 M, 10^−8M, 10^−7 M, 10^−6 M, and 10^−5 M, and trimetazidine (KN713) at concentrations of 10^−7 M, 10^−6 M, 10^−5 M, 10^−4 M, 10^−3 M, and 10^−2 M, respectively.
(§1) The cells were then incubated in a CO2 incubator for 48 hours, after which the assay was terminated by the addition of cold TCA. Cells were fixed in situ by gently adding 50 μl of cold 50% (w/v) TCA (final concentration: 10% TCA) and incubated at 4° C. for 60 min. The supernatant was discarded, and the plate was washed five times with distilled water and air dried. Sulforhodamine B (SRB) solution (100 μl) of 0.4% (w/v) in 1% acetic acid was added to each well, and the plate was left at room temperature for 10 min. After staining, unbound dye was removed by washing five times with 1% acetic acid, and the plate was air-dried. The bound dye was then solubilized with 10 mM trizma base, and the absorbance was recorded at 515 nm using an automated plate reader.
Based on Table 1 above and GI50 values, omeprazole (KN510) and/or thioridazine (KN714) concentrations were added to each well such that the concentrations were as shown in the following groups, and then cancer cell death was measured in the same manner as in Examples 1-1 above. • 1) Control, • 2) Thioridazine (KN714) 5 μM alone treatment group, • 3) Thioridazine (KN714) 10 μM alone treatment group, • 4) Omeprazole (KN510) 200 μM alone treatment group, • 5) Omeprazole (KN510) 200 μM+thioridazine (KN714) 5 μM combination treatment group, • 6) Omeprazole (KN510) 200 μM+thioridazine (KN714) 10 μM combination treatment group.
When the anticancer activity of two compounds in combination is greater than the simple sum of the anticancer activity of the individual compounds (expected activity), this is called synergistic. The predicted synergistic activity of a combination of the present invention can be calculated using the Colby Equation in Equation 1 (S.R. Colby, Weeds, 1967, pp. 15, 20-22): […]
In the present invention, the actual measure of anti-cancer activity of the combination treatment was the inhibition rate of cancer cell growth (%), and the predicted value (E) of the combination treatment was measured by substituting it into the above Colby Equation. If the actual value is greater than the predicted value, it can be judged that there is a synergistic effect, and in this invention, the predicted value calculated by the Colby Equation and the actual value were compared to further verify the synergistic effect of the combination.
Experiments were performed using the breast cancer cell lines MCF-7 cells (1.2×10^4 cells/well) and MDA-MB-231 cells (8.0×10^3 cells/well) in the same manner as in Examples 1-2 and 1-3 above.

CAKI-1 cells = test: SRB assay, renal cell carcinoma cell line CAKI-1
Protocol: as §1, with “As a comparison, omeprazole (KN510) and trimetazidine (KN713), a 3-ketoacyl CoA thiolase inhibitor, were co-treated. […] After cell inoculation, 96-well cell culture plates were incubated for 24 hours before the addition of experimental drugs. […] The cells” for “The cells”, “plate reader. […] The predicted synergistic activity of a combination of the present invention can be calculated using the Colby Equation in Equation 1 (S.R. Colby, Weeds, 1967, pp. 15, 20-22): In the present invention, the actual measure of anti-cancer activity of the combination treatment was the inhibition rate of cancer cell growth (%), and the predicted value (E) of the combination treatment was measured by substituting it into the above Colby Equation.” for “plate reader.”

HCT-116 cells = test: SRB assay, colon cancer cell line HCT-116
Protocol: as §1, with “As a comparison, omeprazole (KN510) and trimetazidine (KN713), a 3-ketoacyl CoA thiolase inhibitor, were co-treated. […] After cell inoculation, 96-well cell culture plates were incubated for 24 hours before the addition of experimental drugs. […] The cells” for “The cells”, “plate reader. […] The predicted synergistic activity of a combination of the present invention can be calculated using the Colby Equation in Equation 1 (S.R. Colby, Weeds, 1967, pp. 15, 20-22): In the present invention, the actual measure of anti-cancer activity of the combination treatment was the inhibition rate of cancer cell growth (%), and the predicted value (E) of the combination treatment was measured by substituting it into the above Colby Equation.” for “plate reader.”

SF295 cells = test: SRB assay, glioblastoma cell line SF295
Protocol: as §1, with “As a comparison, omeprazole (KN510) and trimetazidine (KN713), a 3-ketoacyl CoA thiolase inhibitor, were co-treated. […] After cell inoculation, 96-well cell culture plates were incubated for 24 hours before the addition of experimental drugs. […] The cells” for “The cells”, “plate reader. […] The predicted synergistic activity of a combination of the present invention can be calculated using the Colby Equation in Equation 1 (S.R. Colby, Weeds, 1967, pp. 15, 20-22): In the present invention, the actual measure of anti-cancer activity of the combination treatment was the inhibition rate of cancer cell growth (%), and the predicted value (E) of the combination treatment was measured by substituting it into the above Colby Equation.” for “plate reader.”

AGS cells = test: SRB assay, stomach cancer cell line AGS
Protocol: as §1, with “As a comparison, omeprazole (KN510) and trimetazidine (KN713), a 3-ketoacyl CoA thiolase inhibitor, were co-treated. […] After cell inoculation, 96-well cell culture plates were incubated for 24 hours before the addition of experimental drugs. […] The cells” for “The cells”, “plate reader. […] The predicted synergistic activity of a combination of the present invention can be calculated using the Colby Equation in Equation 1 (S.R. Colby, Weeds, 1967, pp. 15, 20-22): In the present invention, the actual measure of anti-cancer activity of the combination treatment was the inhibition rate of cancer cell growth (%), and the predicted value (E) of the combination treatment was measured by substituting it into the above Colby Equation.” for “plate reader.”

SR cells = test: SRB assay, leukemia cell line SR
Protocol: as §1, with “As a comparison, omeprazole (KN510) and trimetazidine (KN713), a 3-ketoacyl CoA thiolase inhibitor, were co-treated. […] After cell inoculation, 96-well cell culture plates were incubated for 24 hours before the addition of experimental drugs. […] The cells” for “The cells”, “plate reader. […] The predicted synergistic activity of a combination of the present invention can be calculated using the Colby Equation in Equation 1 (S.R. Colby, Weeds, 1967, pp. 15, 20-22): In the present invention, the actual measure of anti-cancer activity of the combination treatment was the inhibition rate of cancer cell growth (%), and the predicted value (E) of the combination treatment was measured by substituting it into the above Colby Equation.” for “plate reader.”

DU-145 cells = test: SRB assay, prostate cancer cells DU-145
Protocol: as §1, with “As a comparison, omeprazole (KN510) and trimetazidine (KN713), a 3-ketoacyl CoA thiolase inhibitor, were co-treated. […] After cell inoculation, 96-well cell culture plates were incubated for 24 hours before the addition of experimental drugs. […] The cells” for “The cells”, “plate reader. […] The predicted synergistic activity of a combination of the present invention can be calculated using the Colby Equation in Equation 1 (S.R. Colby, Weeds, 1967, pp. 15, 20-22): In the present invention, the actual measure of anti-cancer activity of the combination treatment was the inhibition rate of cancer cell growth (%), and the predicted value (E) of the combination treatment was measured by substituting it into the above Colby Equation.” for “plate reader.”

DLD-1 cells = test: SRB assay, colon cancer cell line DLD-1
Protocol: as §1, with “As a comparison, omeprazole (KN510) and trimetazidine (KN713), a 3-ketoacyl CoA thiolase inhibitor, were co-treated. […] After cell inoculation, 96-well cell culture plates were incubated for 24 hours before the addition of experimental drugs. […] The cells” for “The cells”, “plate reader. […] The predicted synergistic activity of a combination of the present invention can be calculated using the Colby Equation in Equation 1 (S.R. Colby, Weeds, 1967, pp. 15, 20-22): In the present invention, the actual measure of anti-cancer activity of the combination treatment was the inhibition rate of cancer cell growth (%), and the predicted value (E) of the combination treatment was measured by substituting it into the above Colby Equation.” for “plate reader.”

[1] = Homo sapiens, KN510 100 μM, read-out: Inhibition rate of cancer cell growth (%) (Actual value)
[2] = Homo sapiens, KN510 200 μM, read-out: Inhibition rate of cancer cell growth (%) (Actual value)

COc1ccc2[nH]c([S+]([O-])Cc3ncc(C)c(OC)c3C)nc2c1 (centres unmarked) [KN510, omeprazole]
inhibition at 100 µM (MCF-7 cells; Homo sapiens, MCF7, KN510 100 μM, read-out: Inhibition rate of cancer cell growth (%) (Actual value)): 34.7% | inhibition at 200 µM (MCF-7 cells; Homo sapiens, MCF7, KN510 200 μM, read-out: Inhibition rate of cancer cell growth (%) (Actual value)): 50% | Cancer cell growth rate Average (%) (MCF-7 cells; KN510 100 μM): 65.30% | Cancer cell growth rate Average (%) (MCF-7 cells; KN510 200 μM): 49.96% | inhibition at 100 µM (CAKI-1 cells; [1]): 32% | inhibition at 200 µM (CAKI-1 cells; [2]): 72.9% | Cancer cell growth rate Average (%) (CAKI-1 cells; KN510 100 μM): 67.99% | Cancer cell growth rate Average (%) (CAKI-1 cells; KN510 200 μM): 27.11% | inhibition at 100 µM (HCT-116 cells; [1]): 15.7% | inhibition at 200 µM (HCT-116 cells; [2]): 31.1% | Cancer cell growth rate Average (%) (HCT-116 cells; KN510 100 μM): 84.28% | Cancer cell growth rate Average (%) (HCT-116 cells; KN510 200 μM): 68.86% | inhibition at 100 µM (SF295 cells; Homo sapiens, SF-295, KN510 100 μM, read-out: Inhibition rate of cancer cell growth (%) (Actual value)): 32% | inhibition at 200 µM (SF295 cells; Homo sapiens, SF-295, KN510 200 μM, read-out: Inhibition rate of cancer cell growth (%) (Actual value)): 63.5% | Cancer cell growth rate Average (%) (SF295 cells; KN510 100 μM): 67.98% | Cancer cell growth rate Average (%) (SF295 cells; KN510 200 μM): 36.53% | inhibition at 100 µM (AGS cells; [1]): 39.6% | inhibition at 200 µM (AGS cells; [2]): 69.5% | Cancer cell growth rate Average (%) (AGS cells; KN510 100 μM): 60.39% | Cancer cell growth rate Average (%) (AGS cells; KN510 200 μM): 30.51% | inhibition at 100 µM (SR cells; [1]): 35.1% | inhibition at 200 µM (SR cells; [2]): 70.1% | Cancer cell growth rate Average (%) (SR cells; KN510 100 μM): 64.90% | Cancer cell growth rate Average (%) (SR cells; KN510 200 μM): 29.89% | inhibition at 100 µM (DU-145 cells; [1]): 50.4% | inhibition at 200 µM (DU-145 cells; [2]): 62.9% | Cancer cell growth rate Average (%) (DU-145 cells; KN510 100 μM): 49.59% | Cancer cell growth rate Average (%) (DU-145 cells; KN510 200 μM): 37.08% | inhibition at 100 µM (DLD-1 cells; [1]): 26.1% | inhibition at 200 µM (DLD-1 cells; [2]): 63.2% | Cancer cell growth rate Average (%) (DLD-1 cells; KN510 100 μM): 73.90% | Cancer cell growth rate Average (%) (DLD-1 cells; KN510 200 μM): 36.78%

Reference: patent US20250170140A1, “PHARMACEUTICAL COMPOSITION FOR PREVENTING OR TREATING CANCER COMPRISING CARNITINE ACYLCARNITINE CARRIER INHIBITOR AND PEROXISOMAL BETA OXIDATION INHIBITOR” (priority 2021, published 2025)
